pIC50: −log10 of the molar value.
Molecular target: ROMK (Kir1.1) channel (Homo sapiens (Human), UniProt P48048)
Experiment: Thallium Flux Assay
Format: cell-based
Description: The following Thallium Flux Assay was performed on each of the final product compounds in the Examples.
A Thallium Flux Assay was performed on the compounds of the Examples. This assay has been described previously; see, e.g., PCT Published Application WO 2013/062900.

ROMK (Kir1.1) channel, sequence (P48048 whole entry): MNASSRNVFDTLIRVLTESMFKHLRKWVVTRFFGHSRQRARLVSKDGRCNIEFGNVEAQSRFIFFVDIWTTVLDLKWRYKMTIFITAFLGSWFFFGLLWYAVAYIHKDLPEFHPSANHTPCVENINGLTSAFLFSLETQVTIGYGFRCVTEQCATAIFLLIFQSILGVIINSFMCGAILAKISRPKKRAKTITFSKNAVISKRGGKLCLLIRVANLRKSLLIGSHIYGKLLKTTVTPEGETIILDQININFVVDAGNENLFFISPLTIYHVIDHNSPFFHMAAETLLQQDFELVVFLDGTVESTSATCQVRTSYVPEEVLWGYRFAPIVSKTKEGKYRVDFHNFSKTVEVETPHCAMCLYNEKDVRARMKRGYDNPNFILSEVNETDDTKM

`CC1=C(N2CCC3(CCN(C[C@H](O)c4ccc5c(c4Cl)Cn4nnnc4-5)CC3)C2=O)COC1=O` [Example 1, (R)-8-(2-(6-chloro-5H-tetrazolo[5,1-a]isoindol-7-yl)-2-hydroxyethyl)-2-(4-methyl-5-oxo-2,5-dihydrofuran-3-yl)-2,8-diazaspiro[4.5]decan-1-one] showed a pIC50 of 7.51.

For `C[C@@H]1CC2(CCN(C[C@H](O)c3ccc4c(c3)CCc3nnnn3-4)CC2)C(=O)N1C1=CC(=O)OC1` [Example 12, (R)-8-((R)-2-(4,5-dihydrotetrazolo[1,5-a]quinolin-7-yl)-2-hydroxyethyl)-3-methyl-2-(5-oxo-2,5-dihydrofuran-3-yl)-2,8-diazaspiro[4.5]decan-1-one], the pIC50 was 6.73.

`C[C@@H]1CC2(CCN(C[C@@H](O)c3ccc4c(c3)CCc3nnnn3-4)CC2)C(=O)N1C1=CC(=O)OC1` [Example 14, (R)-8-((S)-2-(4,5-dihydrotetrazolo[1,5-a]quinolin-7-yl)-2-hydroxyethyl)-3-methyl-2-(5-oxo-2,5-dihydrofuran-3-yl)-2,8-diazaspiro[4.5]decan-1-one] gave a pIC50 of 6.55.

Work on `C[C@@H]1CC2(CCN(C[C@@H](O)c3ccc4c(ccc5nnnn54)c3)CC2)C(=O)N1C1=CC(=O)OC1` [Example 18, (R)-8-((S)-2-hydroxy-2-(tetrazolo[1,5-a]quinolin-7-yl)ethyl)-3-methyl-2-(5-oxo-2,5-dihydrofuran-3-yl)-2,8-diazaspiro[4.5]decan-1-one] yielded a pIC50 of 8.15.

Work on `CC1=C(N2CCC3(CCN(C[C@H](O)c4ccc5c(c4)CCc4nnnn4-5)CC3)C2=O)COC1=O` [Example 7A, (R)-8-(2-(4,5-dihydrotetrazolo[1,5-a]quinolin-7-yl)-2-hydroxyethyl)-2-(4-methyl-5-oxo-2,5-dihydrofuran-3-yl)-2,8-diazaspiro[4.5]decan-1-one] yielded a pIC50 of 7.47.

`CC1=C(N2CCC3(CCN(CC(O)c4ccc5c(c4)[C@H](C)n4nnnc4-5)CC3)C2=O)COC1=O` (stereo partly drawn) [Example 27A, 8-(2-hydroxy-2-((S)-5-methyl-5H-tetrazolo[5,1-α]isoindol-7-yl)ethyl)-2-(4-methyl-5-oxo-2,5-dihydrofuran-3-yl)-2,8-diazaspiro[4.5]decan-1-one] was tested, and the pIC50 was 7.06.

Compound `CC1=C(N2CCC3(CCN(C[C@@H](O)c4ccc5c(c4Cl)Cn4nnnc4-5)CC3)C2=O)COC1=O` [Example 2, (S)-8-(2-(6-chloro-5H-tetrazolo[5,1-a]isoindol-7-yl)-2-hydroxyethyl)-2-(4-methyl-5-oxo-2,5-dihydrofuran-3-yl)-2,8-diazaspiro[4.5]decan-1-one] has a pIC50 of 8.05.

In the case of `CC1=C(N2CCC3(CCN(C[C@@H](O)c4ccc5c(ccc6nnnn65)n4)CC3)C2=O)COC1=O` [Example 22, (R)-8-(2-hydroxy-2-(tetrazolo[1,5-a][1,5]naphthyridin-7-yl)ethyl)-2-(4-methyl-5-oxo-2,5-dihydrofuran-3-yl)-2,8-diazaspiro[4.5]decan-1-one], the pIC50 was 6.73.

`CC1=C(N2CC[C@]3(CCN(C[C@H](O)c4ccc5c(c4)Cn4nnnc4-5)C[C@H]3F)C2=O)COC1=O` [Example 4, (5R,6S)-6-fluoro-8-((R)-2-hydroxy-2-(5H-tetrazolo[5,1-a]isoindol-7-yl)ethyl)-2-(4-methyl-5-oxo-2,5-dihydrofuran-3-yl)-2,8-diazaspiro[4.5]decan-1-one] was tested, and the pIC50 was 7.37.

Compound `CC1=C(N2CCC3(CCN(C[C@@H](O)c4ccc5c(c4)CCc4nnnn4-5)CC3)C2=O)COC1=O` [Example 7B, (S)-8-(2-(4,5-dihydrotetrazolo[1,5-a]quinolin-7-yl)-2-hydroxyethyl)-2-(4-methyl-5-oxo-2,5-dihydrofuran-3-yl)-2,8-diazaspiro[4.5]decan-1-one] has a pIC50 of 7.42.

For `CC1=C(N2CCC3(CCN(C[C@@H](O)c4ccc5c(c4C)Cn4nnnc4-5)CC3)C2=O)COC1=O` [Example 24, (S)-8-(2-hydroxy-2-(6-methyl-5H-tetrazolo[5,1-a]isoindol-7-yl)ethyl)-2-(4-methyl-5-oxo-2,5-dihydrofuran-3-yl)-2,8-diazaspiro[4.5]decan-1-one], the pIC50 was 7.80.

Reference: patent US10208064B2, “Inhibitors of the renal outer medullary potassium channel” (MERCK SHARP & DOHME CORP., priority 2014, dated 2019)
